# Tests used:
# Assay type in all cases: in vivo
# [1] = test system: redroot pigweed (Amaranthus retroflexus, AMARE); test: Pre-emerge test, greenhouse herbicide activity screening; details: pre-emerge, rated 14 days after application, 0 = no damage, 100 = complete death
# Method in brief: (§1)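 Herbicidal damage is scored 0 (none) to 100 (complete plant death) two weeks after a simulated field spray. Rates span 15–1000 g ai/ha, delivered in acetone at 187 l/ha. For post-emergence treatments, plants have 2–3 leaves and the spray carries 0.25% v/v non-ionic surfactant.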
# [2] = test system: green foxtail (Setaria viridis, SETVI); test: Post-emerge test, greenhouse herbicide activity screening; details: phytotoxicity rating 0-100 (0 no damage, 100 complete death), 14 days after application
# Method in brief: (§2)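 Compounds in acetone were track-sprayed at 15–1000 g ai/ha: pre-emergence onto soil sown the previous day, then top-watered to incorporate and later bottom-watered; post-emergence onto 2–3 leaf plants with 0.25% v/v surfactant, bottom-watered only. Ratings on a 0–100 phytotoxicity scale were taken at day 14.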
# [3] = test system: ivyleaf morningglory (Ipomoea hederacea, IPOHE); test: as above; details: phytotoxicity rating 0-100 (0 no damage, 100 complete death), 14 days after application
# Method in brief: as §2
# [4] = test system: large crabgrass (Digitaria sanguinalis, DIGSA); test: as above; details: phytotoxicity rating 0-100 (0 no damage, 100 complete death), 14 days after application
# Method in brief: as §2
# [5] = test system: sicklepod (Cassia obtusifolia, CASOB); test: as above; details: phytotoxicity rating 0-100 (0 no damage, 100 complete death), 14 days after application
# Method in brief: as §2
# [6] = test system: johnsongrass (Sorghum halepense, SORHA); test: as above; details: phytotoxicity rating 0-100 (0 no damage, 100 complete death), 14 days after application
# Method in brief: as §2
# [7] = test system: velvetleaf (Abutilon theophrasti, ABUTH); test: as above; details: phytotoxicity rating 0-100 (0 no damage, 100 complete death), 14 days after application
# Method in brief: as §2
# [8] = test system: lambsquarters (Chenopodium album, CHEAL); test: as above; details: phytotoxicity rating 0-100 (0 no damage, 100 complete death), 14 days after application
# Method in brief: as §2
# [9] = test system: redroot pigweed (Amaranthus retroflexus, AMARE); test: as above; details: phytotoxicity rating 0-100 (0 no damage, 100 complete death), 14 days after application
# Method in brief: as §2
# [10] = test system: barnyardgrass (Echinochloa crus-galli, ECHCG); test: as above; details: phytotoxicity rating 0-100 (0 no damage, 100 complete death), 14 days after application
# Method in brief: as §2
# [11] = test system: field corn (Zea mays L., var. Dekalb 535, CORN); test: Post-emerge test, crop safety; details: phytotoxicity rating 0-100 (0 no damage, 100 complete death), 14 days after application
# Method in brief: as §1
# [12] = test system: upland rice (Oryza sp., var. Tebonnet, RICE); test: Post-emerge test, crop safety; details: phytotoxicity rating 0-100 (0 no damage, 100 complete death), 14 days after application
# Method in brief: as §1
# [13] = test system: field corn (Zea mays L., var. Dekalb 535, CORN); test: Pre-emerge test, crop safety; details: pre-emerge, rated 14 days after application, 0 = no damage, 100 = complete death
# Method in brief: (§3)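 Rating: 0–100 visual injury, 14 DAA. Application: acetone, 187 l/ha, 15–1000 g ai/ha, flat-fan track sprayer with nozzle 40–45 cm above soil or canopy. Post-emerge runs used 0.25% v/v surfactant on 2–3 leaf plants.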
# [14] = test system: upland rice (Oryza sp., var. Tebonnet, RICE); test: Pre-emerge test, crop safety; details: pre-emerge, rated 14 days after application, 0 = no damage, 100 = complete death
# Method in brief: as §3
# [15] = test system: green foxtail (Setaria viridis, SETVI); test: Pre-emerge test, greenhouse herbicide activity screening; details: pre-emerge, rated 14 days after application, 0 = no damage, 100 = complete death
# Method in brief: as §1
# [16] = test system: ivyleaf morningglory (Ipomoea hederacea, IPOHE); test: as above; details: pre-emerge, rated 14 days after application, 0 = no damage, 100 = complete death
# Method in brief: as §1
# [17] = test system: large crabgrass (Digitaria sanguinalis, DIGSA); test: as above; details: pre-emerge, rated 14 days after application, 0 = no damage, 100 = complete death
# Method in brief: as §1
# [18] = test system: sicklepod (Cassia obtusifolia, CASOB); test: as above; details: pre-emerge, rated 14 days after application, 0 = no damage, 100 = complete death
# Method in brief: as §1
# [19] = test system: johnsongrass (Sorghum halepense, SORHA); test: as above; details: pre-emerge, rated 14 days after application, 0 = no damage, 100 = complete death
# Method in brief: as §1
# [20] = test system: velvetleaf (Abutilon theophrasti, ABUTH); test: as above; details: pre-emerge, rated 14 days after application, 0 = no damage, 100 = complete death
# Method in brief: as §1
# [21] = test system: lambsquarters (Chenopodium album, CHEAL); test: as above; details: pre-emerge, rated 14 days after application, 0 = no damage, 100 = complete death
# Method in brief: as §1
# [22] = test system: barnyardgrass (Echinochloa crus-galli, ECHCG); test: as above; details: pre-emerge, rated 14 days after application, 0 = no damage, 100 = complete death
# Method in brief: as §1
smiles,measurement,setting,value
C=CC(=O)N(C(=O)C=C)c1c(OC)c(Cl)cc(F)c1-n1c(=O)cc(C(F)(F)F)n(C)c1=O [2-4],"Pre-emerge Herbicidal Activity AMARE (phytotoxicity rating, scale 0-100)",[1]; 63 g ai/ha,80
same,"Pre-emerge Herbicidal Activity AMARE (phytotoxicity rating, scale 0-100)",[1]; 250 g ai/ha,95
same,Post-emerge Herbicidal Activity SETVI,[2]; 63 g ai/ha,0
same,Post-emerge Herbicidal Activity SETVI,[2]; 250 g ai/ha,0
same,Post-emerge Herbicidal Activity IPOHE,[3]; 63 g ai/ha,0
same,Post-emerge Herbicidal Activity IPOHE,[3]; 250 g ai/ha,20
same,Post-emerge Herbicidal Activity DIGSA,[4]; 63 g ai/ha,0
same,Post-emerge Herbicidal Activity DIGSA,[4]; 250 g ai/ha,0
same,Post-emerge Herbicidal Activity CASOB,[5]; 63 g ai/ha,0
same,Post-emerge Herbicidal Activity CASOB,[5]; 250 g ai/ha,0
same,Post-emerge Herbicidal Activity SORHA,[6]; 63 g ai/ha,10
same,Post-emerge Herbicidal Activity SORHA,[6]; 250 g ai/ha,10
same,Post-emerge Herbicidal Activity ABUTH,[7]; 63 g ai/ha,0
same,Post-emerge Herbicidal Activity ABUTH,[7]; 250 g ai/ha,50
same,Post-emerge Herbicidal Activity CHEAL,[8]; 63 g ai/ha,50
same,Post-emerge Herbicidal Activity CHEAL,[8]; 250 g ai/ha,50
same,Post-emerge Herbicidal Activity AMARE,[9]; 63 g ai/ha,0
same,Post-emerge Herbicidal Activity AMARE,[9]; 250 g ai/ha,70
same,Post-emerge Herbicidal Activity ECHCG,[10]; 63 g ai/ha,0
same,Post-emerge Herbicidal Activity ECHCG,[10]; 250 g ai/ha,0
same,Post-emerge Herbicidal Activity CORN (crop damage),[11]; 63 g ai/ha,0
same,Post-emerge Herbicidal Activity CORN (crop damage),[11]; 250 g ai/ha,0
same,Post-emerge Herbicidal Activity RICE (crop damage),[12]; 63 g ai/ha,0
same,Post-emerge Herbicidal Activity RICE (crop damage),[12]; 250 g ai/ha,0
same,"Pre-emerge crop damage CORN (phytotoxicity rating, scale 0-100)",[13]; 63 g ai/ha,0
same,"Pre-emerge crop damage CORN (phytotoxicity rating, scale 0-100)",[13]; 250 g ai/ha,20
same,"Pre-emerge crop damage RICE (phytotoxicity rating, scale 0-100)",[14]; 63 g ai/ha,0
same,"Pre-emerge crop damage RICE (phytotoxicity rating, scale 0-100)",[14]; 250 g ai/ha,10
same,"Pre-emerge Herbicidal Activity SETVI (phytotoxicity rating, scale 0-100)",[15]; 63 g ai/ha,0
same,"Pre-emerge Herbicidal Activity SETVI (phytotoxicity rating, scale 0-100)",[15]; 250 g ai/ha,80
same,"Pre-emerge Herbicidal Activity IPOHE (phytotoxicity rating, scale 0-100)",[16]; 63 g ai/ha,20
same,"Pre-emerge Herbicidal Activity IPOHE (phytotoxicity rating, scale 0-100)",[16]; 250 g ai/ha,70
same,"Pre-emerge Herbicidal Activity DIGSA (phytotoxicity rating, scale 0-100)",[17]; 63 g ai/ha,0
same,"Pre-emerge Herbicidal Activity DIGSA (phytotoxicity rating, scale 0-100)",[17]; 250 g ai/ha,50
same,"Pre-emerge Herbicidal Activity CASOB (phytotoxicity rating, scale 0-100)",[18]; 63 g ai/ha,0
same,"Pre-emerge Herbicidal Activity CASOB (phytotoxicity rating, scale 0-100)",[18]; 250 g ai/ha,0
same,"Pre-emerge Herbicidal Activity SORHA (phytotoxicity rating, scale 0-100)",[19]; 63 g ai/ha,0
same,"Pre-emerge Herbicidal Activity SORHA (phytotoxicity rating, scale 0-100)",[19]; 250 g ai/ha,0
same,"Pre-emerge Herbicidal Activity ABUTH (phytotoxicity rating, scale 0-100)",[20]; 63 g ai/ha,30
same,"Pre-emerge Herbicidal Activity ABUTH (phytotoxicity rating, scale 0-100)",[20]; 250 g ai/ha,100
same,"Pre-emerge Herbicidal Activity CHEAL (phytotoxicity rating, scale 0-100)",[21]; 63 g ai/ha,50
same,"Pre-emerge Herbicidal Activity CHEAL (phytotoxicity rating, scale 0-100)",[21]; 250 g ai/ha,100
same,"Pre-emerge Herbicidal Activity ECHCG (phytotoxicity rating, scale 0-100)",[22]; 63 g ai/ha,0
same,"Pre-emerge Herbicidal Activity ECHCG (phytotoxicity rating, scale 0-100)",[22]; 250 g ai/ha,0
C=C(C)C(=O)Nc1c(OC)c(Cl)cc(F)c1-n1c(=O)cc(C(F)(F)F)n(C)c1=O [2-5],"Pre-emerge Herbicidal Activity AMARE (phytotoxicity rating, scale 0-100)",[1]; 63 g ai/ha,90
same,"Pre-emerge Herbicidal Activity AMARE (phytotoxicity rating, scale 0-100)",[1]; 250 g ai/ha,100
same,Post-emerge Herbicidal Activity SETVI,[2]; 63 g ai/ha,0
same,Post-emerge Herbicidal Activity SETVI,[2]; 250 g ai/ha,0
same,Post-emerge Herbicidal Activity IPOHE,[3]; 63 g ai/ha,50
same,Post-emerge Herbicidal Activity IPOHE,[3]; 250 g ai/ha,90
same,Post-emerge Herbicidal Activity DIGSA,[4]; 63 g ai/ha,0
same,Post-emerge Herbicidal Activity DIGSA,[4]; 250 g ai/ha,0
same,Post-emerge Herbicidal Activity CASOB,[5]; 63 g ai/ha,10
same,Post-emerge Herbicidal Activity CASOB,[5]; 250 g ai/ha,50
same,Post-emerge Herbicidal Activity SORHA,[6]; 63 g ai/ha,0
same,Post-emerge Herbicidal Activity SORHA,[6]; 250 g ai/ha,30
same,Post-emerge Herbicidal Activity ABUTH,[7]; 63 g ai/ha,90
same,Post-emerge Herbicidal Activity ABUTH,[7]; 250 g ai/ha,100
same,Post-emerge Herbicidal Activity CHEAL,[8]; 63 g ai/ha,40
same,Post-emerge Herbicidal Activity CHEAL,[8]; 250 g ai/ha,70
same,Post-emerge Herbicidal Activity AMARE,[9]; 63 g ai/ha,20
same,Post-emerge Herbicidal Activity AMARE,[9]; 250 g ai/ha,40
same,Post-emerge Herbicidal Activity ECHCG,[10]; 63 g ai/ha,0
same,Post-emerge Herbicidal Activity ECHCG,[10]; 250 g ai/ha,0
same,Post-emerge Herbicidal Activity CORN (crop damage),[11]; 63 g ai/ha,5
same,Post-emerge Herbicidal Activity CORN (crop damage),[11]; 250 g ai/ha,10
same,Post-emerge Herbicidal Activity RICE (crop damage),[12]; 63 g ai/ha,30
same,Post-emerge Herbicidal Activity RICE (crop damage),[12]; 250 g ai/ha,40
same,"Pre-emerge crop damage CORN (phytotoxicity rating, scale 0-100)",[13]; 63 g ai/ha,10
same,"Pre-emerge crop damage RICE (phytotoxicity rating, scale 0-100)",[14]; 63 g ai/ha,70
same,"Pre-emerge crop damage RICE (phytotoxicity rating, scale 0-100)",[14]; 250 g ai/ha,80
same,"Pre-emerge Herbicidal Activity SETVI (phytotoxicity rating, scale 0-100)",[15]; 63 g ai/ha,100
same,"Pre-emerge Herbicidal Activity SETVI (phytotoxicity rating, scale 0-100)",[15]; 250 g ai/ha,100
same,"Pre-emerge Herbicidal Activity IPOHE (phytotoxicity rating, scale 0-100)",[16]; 63 g ai/ha,90
same,"Pre-emerge Herbicidal Activity IPOHE (phytotoxicity rating, scale 0-100)",[16]; 250 g ai/ha,100
same,"Pre-emerge Herbicidal Activity DIGSA (phytotoxicity rating, scale 0-100)",[17]; 63 g ai/ha,50
same,"Pre-emerge Herbicidal Activity DIGSA (phytotoxicity rating, scale 0-100)",[17]; 250 g ai/ha,95
same,"Pre-emerge Herbicidal Activity CASOB (phytotoxicity rating, scale 0-100)",[18]; 63 g ai/ha,40
same,"Pre-emerge Herbicidal Activity CASOB (phytotoxicity rating, scale 0-100)",[18]; 250 g ai/ha,100
same,"Pre-emerge Herbicidal Activity SORHA (phytotoxicity rating, scale 0-100)",[19]; 63 g ai/ha,60
same,"Pre-emerge Herbicidal Activity SORHA (phytotoxicity rating, scale 0-100)",[19]; 250 g ai/ha,90
same,"Pre-emerge Herbicidal Activity ABUTH (phytotoxicity rating, scale 0-100)",[20]; 63 g ai/ha,100
same,"Pre-emerge Herbicidal Activity ABUTH (phytotoxicity rating, scale 0-100)",[20]; 250 g ai/ha,100
same,"Pre-emerge Herbicidal Activity CHEAL (phytotoxicity rating, scale 0-100)",[21]; 63 g ai/ha,100
same,"Pre-emerge Herbicidal Activity CHEAL (phytotoxicity rating, scale 0-100)",[21]; 250 g ai/ha,100
same,"Pre-emerge Herbicidal Activity ECHCG (phytotoxicity rating, scale 0-100)",[22]; 63 g ai/ha,10
same,"Pre-emerge Herbicidal Activity ECHCG (phytotoxicity rating, scale 0-100)",[22]; 250 g ai/ha,90

# — patent publication US6355799B1, “Substituted benzene compounds, process for their preparation, and herbicidal and defoliant compositions containing them” (ISK Americas Incorporated, priority 1997, dated 2002)
